Source: patent US7632872B2, “Analgesic agent for newborn or fetal subjects” (Protexeon Limited, priority 2002, dated 2009)
Read-outs that look alike come from different tables or passages of the source. Marks after values point to notes of the source that are not given here.

Tests used:
[1] = system: Fischer rats; experiment: Formalin plantar test, nociceptive intensity scoring (behaviour); format: in vivo, rat; settings: for area under curve (AUC) of nociceptive intensity scoring curves: 70% Xe + formalin, AUC over 60 min, mean(SEM), n=3-4
Description: (§1) The study protocol was approved by the Home Office (UK), and all efforts were made to minimize animal suffering and the number of animals used. Fischer rats were used for the entire study (B&K Universal, Grimston Aldbrough Hull, UK). The rats were provided ad libitum food and water, and artificial lighting between 6 a.m. and 6 p.m. The age of each animal was determined from the body weight, based on a previously established growth curve (Hashimoto et al., 2002). (The date of birth was defined as 0 day-old.) Experiments were performed on rat pups of 7, 19, 28 day-old and on adult rats (11-12 week-old).
(§2) Within each age-group, there were three cohorts (n=3 - 4) “Air+formalin”, “Xenon+formalin” and “Air+saline” cohorts. In the Air+formalin group, animals exposed to air were injected with 5% formalin into the plantar surface of their left hind paw subcutaneously. In the Xenon+formalin group, animals exposed to 70% Xe/20% O2/10% N2 were injected with 5% formalin as described above. In the Air+saline group, animals exposed to air were injected with saline as above. The volumes of formalin or saline injected were adjusted for each age group as previously reported [Ohashi Y et al, Pain 2002;100:7-18] and were as follows: 10 μl for 7 days old; 15 μl for 19 days old; 20 μl for 28 days old; 50 μl for adults.
(§3) A recirculating system for exposure to the gas was constructed to minimise xenon consumption (FIG. 3). The circuit was flushed with gas (either air or xenon/oxygen/nitrogen) at a flow rate of 4 l/min and after the desired gas concentrations were achieved, the flow rate was reduced to 40 ml/min for the remainder of the experimental period. The carbon dioxide level and the humidity were kept less than 0.6% and 50% respectively with soda lime and silica gel. Formalin or saline was administered 15 min after gas exposure; thereafter, animals were exposed to the gas mixture for a further 90 min.
Immediately after injection of formalin, behavior was recorded for 60 min with a video camera (MegaPixel, Digital Handycam, Sony) positioned approximately 50 cm beneath the floor of the chamber to allow an unobstructed view of the paws (visible via a television monitor) and to facilitate recording of animal behavior. The chamber and holding area for pups waiting to be tested were maintained at room temperature throughout the experiment.
Older rat pups were scored across four categories of pain behavior after xenon administration: no pain (the injected paw was in continuous contact with floor=“0”), favoring (the injected paw rested lightly on the floor=“1”), lifting (the injected paw was elevated all the time=“2”) and licking (licking, biting or shaking of the injected paw=“3”) [Teng C J et al, Pain 1998;76:337-47] and calculated as [Nociceptive score =(T1+[T2×2]+[T3×3])/300, where T1, T2 and T3 are the durations (sec) spent in categories 1, 2 or 3 per 300 sec epoch].
The nociceptive intensity scoring against time in each animal was plotted and the area under curve (over a 60 min time period) (AUC) from each animal was calculated. The mean of c-Fos positive neurons for three representative sections in each region as described above was the aggregate score for each animal. The results of nociceptive intensity or c-Fos positive neurons are reported as means±SEMs. The statistical analysis was performed by one-way analysis of variance, followed by Newman-Keuls test. A p value <0.05 was regarded as statistically significant.

[2] = system: c-Fos expression; experiment: Formalin-induced c-Fos expression at the lumbar level of the spinal cord (immunohistochemistry); format: in vivo, rat; settings: ipsilateral, 70% Xe; for reduction of c-Fos expression in response to formalin: 7 day-old pups; for suppression of mean c-Fos expression: 19 day-old rats; for depression of c-Fos expression in response to formalin: 28 day-old rats; for inhibition of c-Fos expression: adult rats
Description: as §1, §2, §3
Ninety min after the formalin injection, animals were deeply anesthetised with pentobarbital (100 mg/kg, i.p.) and perfused with 4% paraformaldehyde. The whole spinal cord was removed. The lumbar enlargement was sectioned transversely at 30 μm and then was stained for c-Fos as previously described [Ma D et al, Br J Anaesth 2002;89:73946]. Briefly, sections were incubated for 30 min in 0.3% H2O2 in methanol and thereafter washed three times in 0.1M phosphate buffered saline (PBS). Following this, the sections were incubated for 1 hour in a “blocking solution” consisting of 3% donkey serum and 0.3% Triton X in PBS (PBT) and subsequently incubated overnight at 4° C. in 1:5,000 goat anti-c-Fos antibody (sc-52-G, Santa Cruz Biotechnology, Santa Cruz, Calif.) in PBT with 1% donkey serum. The sections were then rinsed 3 times with PBT and incubated with 1:200 donkey anti-goat IgG (Vector laboratories, Burlingame, Calif.) in PBT with 1% Donkey serum for 1 hour. The sections were washed again with PBT and incubated with avidin-biotin-peroxidase complex (Vector Laboratories) in PBT for 1 hour. The sections were rinsed 3 times with PBS and stained with 3,3′-diaminobenzidine (DAB) with nickel ammonium sulphate in which hydrogen peroxide was added (DAB kit, Vector Laboratories). After the staining was completed, the sections were rinsed in PBS followed by distilled water and mounted, dehydrated with 100% ethanol, cleaned with 100% xylene and covered with cover slips.
Photomicrographs of three sections per each animal were scored for c-Fos positive neurons by an observer who was blinded to the experimental treatment. For the purpose of localizing the c-Fos positive cells to functional regions of the spinal cord, each section was divided into A/B (laminae I-II or the superficial area), C (laminae […] or nucleus proprius area), D (laminae V-VI or the neck area and E (laminae VII-Xor the ventral area) [Yi D K et al, Pain 1995;60:257-265]. […]

[3] = system: c-Fos positive neurones; experiment: Example 1: formalin hindpaw injection in 7 day neonatal rat pup, cFos positive neurones in dorsal horn; format: in vivo; settings: 7 day old rat; dorsal horn of spinal cord; 90 minutes after formalin; xenon 70% v/v, nitrous oxide at a normally analgesic dose in the adult rat
Description: The analgesic efficacy of xenon was investigated in a neonatal rat pup. A 7 day neonatal rat pup is known to be developmentally equivalent to a human full term fetus with respect to pain processing pathways.
A 7 day old rat was injected with formalin into the hindpaw during exposure to either air or xenon (70% v/v). 90 minutes later the animal was killed and the spinal cord removed; evidence of activation of pain-processing pathways by formalin was sought by counting the number of cFos positive neurones in the dorsal horn of the spinal cord.

[4] = system: NMDA receptor; settings: 80% xenon; cultured hippocampal neurons; cited from earlier work
[5] = cited from earlier work
[6] = in vivo; cited from earlier work
[7] = administration of xenon; cited from earlier work
[8] = system: rats; settings: cited from earlier work

Compound: [Xe] [xenon]
- area under curve (AUC) of nociceptive intensity scoring curves ([1]; 7-day-old Fischer rats, P<0.001 vs Air + formalin 11(0.4)): 0.17(0.04)**
- area under curve (AUC) of nociceptive intensity scoring curves ([1]; 19-day-old Fischer rats, P<0.01 vs Air + formalin 88(8)): 5(0.9)*
- area under curve (AUC) of nociceptive intensity scoring curves ([1]; 28-day-old Fischer rats, P<0.001 vs Air + formalin 81(7)): 1.0(0.3)**
- nociceptive behaviour after formalin injection ([1]; 7 day-old rats exposed to xenon, 60-min observation period): only mild nociceptive behaviour for the first two minutes
- area under curve (AUC) of nociceptive intensity scoring curves ([1]; Adult Fischer rats, P<0.001 vs Air + formalin 120(0.7)): 0.8(0.1)**
- reduction of c-Fos expression in response to formalin ([2]; lamina C, P<0.001): 50%
- reduction of c-Fos expression in response to formalin ([2]; lamina D, P<0.001): 50%
- reduction of c-Fos expression in response to formalin ([2]; lamina E, P<0.01): 28%
- reduction of c-Fos expression in response to formalin ([2]; laminae A/B, P<0.001): 48%
- suppression of mean c-Fos expression ([2]; lamina III-IV, P<0.001): 57%
- suppression of mean c-Fos expression ([2]; lamina V-VI, P<0.001): 62%
- suppression of mean c-Fos expression ([2]; laminae I-II, P<0.001): 55%
- depression of c-Fos expression in response to formalin ([2]; lamina III-IV, P<0.001): 27%
- depression of c-Fos expression in response to formalin ([2]; lamina V-VI, P<0.001): 28%
- depression of c-Fos expression in response to formalin ([2]; laminae I-II, P<0.001): 34%
- inhibition of c-Fos expression ([2]; lamina III-IV, P<0.001): 45%
- inhibition of c-Fos expression ([2]; lamina V-VI, P<0.001): 34%
- inhibition of c-Fos expression ([2]; laminae I-II, P<0.001): 41%
- effect on formalin-induced c-Fos positive neurones [3]: almost completely attenuated
- reduction of NMDA-activated currents [4]: up to 60%
- minimum alveolar concentration (MAC) ([5]; elderly female patients): 51 % atn
- minimum alveolar concentration (MAC) ([5]; humans): 71 % atm
- MAC-awake ([5]; in vivo): 33%
- teratogenic effects [6]: devoid of teratogenic effects
- inherent neurotoxicity of NMDA antagonists [7]: does not appear to exist

Compound: [N-]=[N+]=O [N2O, Nitrous oxide]
- effect on formalin-induced c-Fos positive neurones [3]: did not change
- MAC ([5]; humans): 104%
- antinociceptive effect (behaviorally and immunohistochemically) ([8]; animals younger than 23 days old, formalin): no antinociceptive effect
- antinociceptive effects against thermal and inflammatory stimulation ([8]; rats under 3 weeks of age): lacks antinociceptive effects
